The text below walks through data of patent US9540400B2, “Compounds as diacylglycerol acyltransferase inhibitors” (GlaxoSmithKline Intellectual Property (No. 2) Limited, priority 2011, dated 2017).

The target of experiment [1] is T1, Human DGAT1 (Homo sapiens, UniProt O75907).
T1 construct: made in house; host or cells: Sf9 insect cells (baculovirus); microsomes
T1 sequence (O75907 1-488): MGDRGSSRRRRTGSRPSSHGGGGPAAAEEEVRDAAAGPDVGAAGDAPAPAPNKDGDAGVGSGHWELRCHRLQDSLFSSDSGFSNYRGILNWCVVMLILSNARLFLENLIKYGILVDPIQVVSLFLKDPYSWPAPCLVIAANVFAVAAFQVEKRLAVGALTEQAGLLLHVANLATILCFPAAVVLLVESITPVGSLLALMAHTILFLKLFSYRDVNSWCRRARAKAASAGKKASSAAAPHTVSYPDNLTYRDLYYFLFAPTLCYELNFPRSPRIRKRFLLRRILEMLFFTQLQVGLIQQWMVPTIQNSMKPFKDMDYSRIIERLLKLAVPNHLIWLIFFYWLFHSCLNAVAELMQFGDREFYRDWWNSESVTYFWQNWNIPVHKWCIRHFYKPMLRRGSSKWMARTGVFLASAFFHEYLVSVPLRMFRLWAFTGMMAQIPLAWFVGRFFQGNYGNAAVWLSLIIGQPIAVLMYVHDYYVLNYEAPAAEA
Nature of the experiment: hDGAT1 lipid extraction (LE) assay, inhibition of triacylglycerol product formation. The format is biochemical. As to conditions: human DGAT1 microsomes from Sf9 cells; radiolabelled tridecanoylglycerol extraction. The protocol:
(§1) Human DGAT1 was expressed in Sf9 insect cells using a baculovirus expression system. Microsomes were prepared and used as enzyme for in vitro inhibition testing in either of two formats measuring production of coenzyme A or tridecanoylglycerol product, respectively. All steps were performed at 21-23° C. All data for DGAT1 inhibition by test compounds were collected under conditions where product formation was linear with reaction time.
For inhibition of triacylglycerol product formation, 11 uL reactions were run in white Polyplate-384 (PerkinElmer6007300) starting with a 30 minute pre-reaction incubation of 5 uL of 2.2× enzyme and 1 uL of 100% DMSO containing test compound or control compound, {4-[4-(4-amino-7,7-dimethyl-7H-pyrimido[4,5-b][1,4]oxazin-6-yl)phenyl]cyclohexyl}acetic acid. Some assays were performed with inclusion of didecanoylglycerol in the pre-reaction incubation of test compounds and enzyme. Reactions were initiated after 30 minute pre-reaction incubation via addition of 5 uL of 2.2× substrate. Final reaction conditions consisted of 50 mM HEPES pH 7.5, 2 mM MgCl2, 1 mM CHAPS, 25 uM didecanoylglycerol, 0.5 uM decanoyl-CoA, 0.3 nCi/uL [^14C]-decanoyl-CoA or 0.5 nCi/uL [^3H]-decanoyl-CoA, 0.05-4 ug/mL microsomal protein, and 1% DMSO. Following 60 minute reaction incubation, reactions were stopped with 40 uL of 45% isopropanol and 50 mM sodium carbonate in water and mixed. Extraction of tridecanoylglycerol product was accomplished via addition of 30 uL Microscint-E (Perkin Elmer) and 2 hours of incubation (sealed). Plates were read on a Microbeta Microplate reader. Inhibition was normalized to controls containing DMSO or 10 uM {4-[4-(4-amino-7,7-dimethyl-7H-pyrimido[4,5-b][1,4]oxazin-6-yl)phenyl]cyclohexyl}acetic acid. IC50s were fitted using GraphPad Prism to a sigmoidal dose response.

Experiment [2] has as its target T1, Human DGAT1. Description: hDGAT1 fluorescence (CPM) assay, inhibition of CoA product formation. The format is biochemical. As to conditions: human DGAT1 microsomes from Sf9 cells. How it is done: as §1
For inhibition of CoA product formation, test compounds were prepared in 100% DMSO, diluted 100-fold into assay buffer, and 10 uL added to 96-well half-area plates (Greiner 675076). An equal volume (10 uL) of 3× enzyme in buffer was added and the components incubated for 30 minutes pre-reaction incubation to allow enzyme and test compounds to attain binding equilibrium. […] Some assays were performed with inclusion of didecanoylglycerol in the pre-reaction incubation of test compound and enzyme. DGAT reactions (30 uL) were initiated upon addition of 10 uL of 3× substrate solution. Final reaction conditions consisted of 20 mM HEPES pH 7.5, 2 mM MgCl2, 1 mM CHAPS, 50 uM didecanoylglycerol, 3 uM decanoyl-CoA, 1 ug/mL microsomal protein, and 1% DMSO. Following a 60 minute reaction incubation, reactions were stopped and CoA product derivatized with 30 uL of buffer containing 10 uM {4-[4-(4-amino-7,7-dimethyl-7H-pyrimido[4,5-b][1,4]oxazin-6-yl)phenyl]cyclohexyl}acetic acid and 50 uM 7-diethylamino-3-(4′-maleimidylphenyl)-4-methylcoumarin (CPM). Fluorescence was read using Envision reader at Ex 405 nm/Em 480 nm about 30 minutes after addition of final solution. Inhibition was normalized to controls containing DMSO or 10 uM {4-[4-(4-amino-7,7-dimethyl-7H-pyrimido[4,5-b][1,4]oxazin-6-yl)phenyl]cyclohexyl}acetic acid. IC50s were fitted using GraphPad Prism to a sigmoidal dose response.

With `CCCn1cc(C(C)(OC)C(F)(F)F)c2cc(N3CCOc4ncnc(N)c4C3=O)ccc21` (stereo not shown) [Example 64, 4-amino-6-[1-propyl-3-(1,1,1-trifluoro-2-methoxypropan-2-yl)-1H-indol-5-yl]-5H,6H,7H,8H-pyrimido[5,4-f][1,4]oxazepin-5-one], on Human DGAT1 [1], half-maximal inhibition (IC50) was put at 8.8 nM. This lies in the single-digit nanomolar range.

Compound `Nc1ncnc2c1C(=O)N(c1ccc3c(ccn3-c3ccccc3)c1)CCO2` [Example 65, 4-Amino-6-(1-phenyl-1H-indol-5-yl)-7,8-dihydropyrimido[5,4-f][1,4]oxazepin-5(6H)-one] had an IC50 against Human DGAT1 [1] of 3.9 nM.

The compound `Nc1ncnc2c1C(=O)N(c1ccc3c(ccn3-c3nccs3)c1)CCO2` [Example 82, 4-Amino-6-(1-(thiazol-2-yl)-1H-indol-5-yl)-7,8-dihydropyrimido[5,4-f][1,4]oxazepin-5(6H)-one] returned an IC50 at Human DGAT1 [2] of 20.5 nM.

As for `CCCn1[nH]c(=O)c2cc(N3CCOc4ncnc(N)c4C3=O)ccc21` [Example 11, 4-Amino-6-(3-oxo-1-propyl-2,3-dihydro-1H-indazol-5-yl)-7,8-dihydropyrimido[5,4-f][1,4]oxazepin-5(6H)-one], the IC50 on Human DGAT1 [2] came to 6.3 nM. Compared with the last compound, the IC50 is about 3.3-fold lower.

As to `CC(C)c1cn(-c2ccccc2)c2ccc(N3CCOc4ncnc(N)c4C3=O)cc12` [Example 94, 4-Amino-6-(3-isopropyl-1-phenyl-1H-indol-5-yl)-7,8-dihydropyrimido[5,4-f][1,4]oxazepin-5(6H)-one], at Human DGAT1 [2], the IC50 was 873 nM.

`Nc1ncnc2c1C(=O)N(c1cnc3c(ccn3CC(F)F)c1)CCO2` [Example 33, 4-Amino-6-(1-(2,2-difluoroethyl)-1H-pyrrolo[2,3-b]pyridin-5-yl)-7,8-dihydropyrimido[5,4-f][1,4]oxazepin-5(6H)-one] registered an IC50 against Human DGAT1 [1] of 23.3 nM.

`Nc1ncnc2c1C(=O)N(c1ccc3c(ccn3-c3ccc(C(F)(F)F)cc3)c1)CCO2` [Example 78, 4-amino-6-{1-[4-(trifluoromethyl)phenyl]-1H-indol-5-yl}-5H,6H,7H,8H-pyrimido[5,4-f][1,4]oxazepin-5-one] registered an IC50 against Human DGAT1 [2] of 7.3 nM.

As for `Nc1ncnc2c1C(=O)N(c1ccc3c(ccn3-c3ccc(C(F)(F)F)nc3)c1)CCO2` [Example 83, 4-Amino-6-(1-(6-(trifluoromethyl)pyridin-3-yl)-1H-indol-5-yl)-7,8-dihydropyrimido[5,4-f][1,4]oxazepin-5(6H)-one], 40 nM corresponded to half-maximal inhibition against Human DGAT1 [2] (IC50).

On to `CCCn1c(-c2ccccc2)cc2cc(N3CCOc4ncnc(N)c4C3=O)ccc21` [Example 95, 4-Amino-6-(2-phenyl-1-propyl-1H-indol-5-yl)-7,8-dihydropyrimido[5,4-f][1,4]oxazepin-5(6H)-one], for which the midpoint of inhibition on Human DGAT1 [2], the IC50, lay at 10.1 nM. Compared with the last compound, the IC50 is about 4-fold lower.

The compound `CN1CCc2cc(N3CCOc4ncnc(N)c4C3=O)ccc2C1=O` [Example 6, 6-{4-amino-5-oxo-5H,6H,7H,8H-pyrimido[5,4-f][1,4]oxazepin-6-yl}-2-methyl-1,2,3,4-tetrahydroisoquinolin-1-one] had an IC50 against Human DGAT1 [2] of 85.8 nM.

`Nc1ncnc2c1C(=O)N(c1cnc3c(ccn3-c3cccc(C(F)(F)F)c3)c1)CCO2` [Example 81, 4-amino-6-{1-[3-(trifluoromethyl)phenyl]-1H-pyrrolo[2,3-b]pyridin-5-yl}-5H,6H,7H,8H-pyrimido[5,4-f][1,4]oxazepin-5-one] registered an IC50 at Human DGAT1 [1] of 2.1 nM. This counts as single-digit nanomolar.

“4-amino-6-(6-fluoro-1-phenyl-1H-indol-5-yl)-5H,6H,7H,8H-pyrimido[5,4-f][1,4]oxazepin-5-one [Example 96]”: on Human DGAT1 [1], 7.3 nM corresponded to half-maximal inhibition (IC50).

With `Nc1ncnc2c1C(=O)N(c1cnc3c(ccn3-c3ccccc3)c1)CCO2` [Example 72, 4-amino-6-{1-phenyl-1H-pyrrolo[2,3-b]pyridin-5-yl}-5H,6H,7H,8H-pyrimido[5,4-f][1,4]oxazepin-5-one], half-maximal inhibition at Human DGAT1 [1] (IC50) was put at 9.3 nM.

`Nc1ncnc2c1C(=O)N(c1ccc3c(ccn3-c3cccc(C(F)(F)F)c3)c1)CCO2` [Example 80, 4-amino-6-{1-[3-(trifluoromethyl)phenyl]-1H-indol-5-yl}-5H,6H,7H,8H-pyrimido[5,4-f][1,4]oxazepin-5-one] displayed an IC50 against Human DGAT1 [1] of 3.6 nM.

Turning to `C=CCn1c2ccc(N3CCOc4ncnc(N)c4C3=O)cc2c(=O)n1Cc1ccccc1` [Example 10, 6-(1-Allyl-2-benzyl-3-oxo-2,3-dihydro-1H-indazol-5-yl)-4-amino-7,8-dihydropyrimido[5,4-f][1,4]oxazepin-5(6H)-one], at Human DGAT1 [2], the IC50 is 42 nM.

Turning to `Nc1ncnc2c1C(=O)N(c1ccc3ncn(Cc4ccccc4)c(=O)c3c1)CCO2` [Example 97, 4-Amino-6-(3-benzyl-4-oxo-3,4-dihydroquinazolin-6-yl)-7,8-dihydropyrimido[5,4-f][1,4]oxazepin-5(6H)-one], the IC50 at Human DGAT1 [1] is 201 nM.

At Human DGAT1 [1], `Nc1ncnc2c1C(=O)N(c1ccc3nc[nH]c(=O)c3c1)CCO2` [Example 98, 4-Amino-6-(4-oxo-3,4-dihydroquinazolin-6-yl)-7,8-dihydropyrimido[5,4-f][1,4]oxazepin-5(6H)-one] returned an IC50 of 623 nM.

As for `Nc1ncnc2c1C(=O)N(c1cnc3c(ccn3-c3cccc(Cl)c3)c1)CCO2` [Example 68, 4-amino-6-[1-(3-chlorophenyl)-1H-pyrrolo[2,3-b]pyridin-5-yl]-5H,6H,7H,8H-pyrimido[5,4-f][1,4]oxazepin-5-one], inhibition against Human DGAT1 [2] was half-maximal at 2.8 nM (IC50).

`Nc1ncnc2c1C(=O)N(c1cnc3c(ccn3-c3ccc(C(F)(F)F)cc3)c1)CCO2` [Example 66, 4-Amino-6-(1-(4-(trifluoromethyl)phenyl)-1H-pyrrolo[2,3-b]pyridin-5-yl)-7,8-dihydropyrimido[5,4-f][1,4]oxazepin-5(6H)-one] had an IC50 against Human DGAT1 [2] of 42.5 nM. Against the preceding compound, the IC50 is about 15-fold higher.

Regarding `Nc1ncnc2c1C(=O)N(c1ccc3c(ccn3-c3ccccc3F)c1)CCO2` [Example 76, 4-amino-6-[1-(2-fluorophenyl)-1H-indol-5-yl]-5H,6H,7H,8H-pyrimido[5,4-f][1,4]oxazepin-5-one], at Human DGAT1 [2], the IC50 turned out to be 2.5 nM.

Compound `Nc1ncnc2c1C(=O)N(c1cnc3c(ccn3C3CC3)c1)CCO2` [Example 34, 4-Amino-6-(1-cyclopropyl-1H-pyrrolo[2,3-b]pyridin-5-yl)-7,8-dihydropyrimido[5,4-f][1,4]oxazepin-5(6H)-one] gave an IC50 against Human DGAT1 [2] of 25.7 nM. This IC50 is about 10-fold higher than that of the compound before.

`Nc1ncnc2c1C(=O)N(c1ccc3c(ccn3-c3cnccn3)c1)CCO2` [Example 87, 4-amino-6-[1-(pyrazin-2-yl)-1H-indol-5-yl]-5H,6H,7H,8H-pyrimido[5,4-f][1,4]oxazepin-5-one] came in with an IC50 at Human DGAT1 [2] of 55.1 nM.

In the case of `Nc1ncnc2c1C(=O)N(c1cnc3c(ccn3CCO)c1)CCO2` [Example 59, 4-amino-6-[1-(2-hydroxyethyl)-1H-pyrrolo[2,3-b]pyridin-5-yl]-5H,6H,7H,8H-pyrimido[5,4-f][1,4]oxazepin-5-one], the IC50 against Human DGAT1 [2] is 49.5 nM. This IC50 and that of the compound before are within 1.5-fold of each other.

Consider `CCCn1ccc2cc(N3CCOc4ncnc(N)c4C3=O)ccc21` [Example 12, 4-Amino-6-(1-propyl-1H-indol-5-yl)-7,8-dihydropyrimido[5,4-f][1,4]oxazepin-5(6H)-one], for which the IC50 on Human DGAT1 [2] is 16.3 nM. Compared with the last compound, the IC50 is about 3-fold lower.

On to `Nc1ncnc2c1C(=O)N(c1ccc3c(c1)CCC(=O)N3CC(=O)O)CCO2` [Example 3, 2-(6-{4-amino-5-oxo-5H,6H,7H,8H-pyrimido[5,4-f][1,4]oxazepin-6-yl}-2-oxo-1,2,3,4-tetrahydroquinolin-1-yl)acetic acid], for which, at Human DGAT1 [2], the IC50 is 372 nM. Compared with the last compound, the IC50 is about 23-fold higher.
